In PubChem BioAssay AID330 (DTP/NCI, 2004):
Several values for one entry are separate records, joined by “and”; a condition that tells them apart may be missing. Identical values can stand only once. Inconclusive results and toxic doses are left out. How the source made its calls: active means survival T/C of 150% or more; inactive means T/C below 125% in these data. Peptide text beside a SMILES is read from it. * marks the point of attachment. Trt = c1ccc(C(c2ccccc2)(c2ccccc2)*)cc1; Bn = c1ccc(C*)cc1

System: P388 leukemia ip, CD2F1 mice, survival T/C
Test: NCI In Vivo Anticancer Drug Screen. Data for tumor model P388 Leukemia (intraperitoneal) in CD2F1 (CDF1) mice
Details: endpoint: median survival time, higher = longer survival
How it was run: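 Mice carrying the transplanted tumor received test compound or vehicle. Survival was recorded in each group, and the value is the treated-group measurement divided by that of the vehicle-treated control group.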

[1] = dose: 50.0 mg/kg/injection, schedule: Q01DX009 (ip), vehicle: saline with Tween-80
[2] = dose: 100.0 mg/kg/injection, schedule: Q01DX009 (ip), vehicle: saline with Tween-80
[3] = dose: 200.0 mg/kg/injection, schedule: Q01DX009 (ip), vehicle: saline with Tween-80
[4] = dose: 100.0 mg/kg/injection, schedule: Q01DX001 (ip), vehicle: Klucel (hydroxypropylcellulose) (HPC)
[5] = dose: 200.0 mg/kg/injection, schedule: Q01DX001 (ip), vehicle: Klucel (hydroxypropylcellulose) (HPC)
[6] = dose: 400.0 mg/kg/injection, schedule: Q01DX001 (ip), vehicle: Klucel (hydroxypropylcellulose) (HPC)
[7] = dose: 200.0 mg/kg/injection, schedule: Q04DX003 (ip), vehicle: saline with Tween-80
[8] = dose: 400.0 mg/kg/injection, schedule: Q04DX003 (ip), vehicle: saline with Tween-80
[9] = dose: 50.0 mg/kg/injection, schedule: Q01DX005 (ip), vehicle: Klucel (hydroxypropylcellulose) (HPC)
[10] = dose: 100.0 mg/kg/injection, schedule: Q01DX005 (ip), vehicle: Klucel (hydroxypropylcellulose) (HPC)
[11] = dose: 200.0 mg/kg/injection, schedule: Q01DX005 (ip), vehicle: Klucel (hydroxypropylcellulose) (HPC)
[12] = dose: 50.0 mg/kg/injection, schedule: Q01DX009 (ip), vehicle: saline
[13] = dose: 100.0 mg/kg/injection, schedule: Q01DX009 (ip), vehicle: saline
[14] = dose: 200.0 mg/kg/injection, schedule: Q01DX009 (ip), vehicle: saline
[15] = dose: 25.0 mg/kg/injection, schedule: Q04DX002 (ip), vehicle: saline with Tween-80
[16] = dose: 50.0 mg/kg/injection, schedule: Q04DX002 (ip), vehicle: saline with Tween-80
[17] = dose: 100.0 mg/kg/injection, schedule: Q04DX003 (ip), vehicle: saline with Tween-80
[18] = dose: 50.0 mg/kg/injection, schedule: Q01DX005 (ip), vehicle: saline with Tween-80
[19] = dose: 100.0 mg/kg/injection, schedule: Q01DX005 (ip), vehicle: saline with Tween-80
[20] = dose: 200.0 mg/kg/injection, schedule: Q01DX005 (ip), vehicle: saline with Tween-80

Measured: T/C

S=C1N=C2c3ccccc3C2C(=S)S1 (stereo not given)
inactive: dose: 25.0 mg/kg/injection, schedule: Q01DX009 (ip), vehicle: saline with Tween-80 93 % of control | [1] 101 % of control and 105 % of control | [2] 102 % of control and 120 % of control and 91 % of control | [3] 100 % of control and 104 % of control and 87 % of control

COc1ccc(Cn2nnc(C(N)=O)c2Cl)cc1
inactive: [4] 99 % of control | [5] 99 % of control | [6] 89 % of control

O=P(Oc1ccc(OP(=O)(N2CC2)N2CC2)cc1)(N1CC1)N1CC1
active: [2] 154 % of control | [3] 181 % of control | [7] 154 % of control | dose: 264.0 mg/kg/injection, schedule: Q04DX003 (ip), vehicle: saline with Tween-80 166 % of control | [8] 166 % of control

C/C=C/Cc1n[nH]c(=O)c2c(C)[nH]nc12
inactive: dose: 25.0 mg/kg/injection, schedule: Q04DX002 (ip), vehicle: Klucel (hydroxypropylcellulose) (HPC) 105 % of control | dose: 50.0 mg/kg/injection, schedule: Q04DX002 (ip), vehicle: Klucel (hydroxypropylcellulose) (HPC) 103 % of control | dose: 100.0 mg/kg/injection, schedule: Q04DX002 (ip), vehicle: Klucel (hydroxypropylcellulose) (HPC) 104 % of control and 90 % of control

O=C(O)C1NCCC1Oc1ccccc1 (stereo not given)
inactive: [9] 99 % of control | [10] 104 % of control | [11] 100 % of control

O=S(=O)(O)c1ccc2c(c1)C1C(C3C2C2(Cl)C(Cl)=C(Cl)C3(Cl)C2(Cl)Cl)C2(Cl)C(Cl)=C(Cl)C1(Cl)C2(Cl)Cl (stereo not given)
inactive: [12] 108 % of control | [13] 108 % of control | [14] 114 % of control

CC(C)(C)N(C/C=C/CN(Cc1ccccc1)Cc1ccccc1)C(C)(C)C
inactive: [1] 87 % of control | [2] 95 % of control

Cc1c2ccncc2c(CNC(=O)CCCC(=O)NCc2c3cnccc3c(C)c3c2c2ccccc2n3C)c2c3ccccc3n(C)c12
inactive: dose: 6.25 mg/kg/injection, schedule: Q04DX002 (ip), vehicle: saline with Tween-80 104 % of control | dose: 12.5 mg/kg/injection, schedule: Q04DX002 (ip), vehicle: saline with Tween-80 104 % of control | [15] 102 % of control | [16] 104 % of control

N=c1oc(-c2ccccc2)cc2ccccc12
inactive: dose: 6.25 mg/kg/injection, schedule: Q01DX005 (ip), vehicle: Klucel (hydroxypropylcellulose) (HPC) 104 % of control | dose: 12.5 mg/kg/injection, schedule: Q01DX005 (ip), vehicle: Klucel (hydroxypropylcellulose) (HPC) 100 % of control | dose: 25.0 mg/kg/injection, schedule: Q01DX005 (ip), vehicle: Klucel (hydroxypropylcellulose) (HPC) 104 % of control

N#CC(C#N)(c1ccccc1)N1CCOCC1
inactive: dose: 25.0 mg/kg/injection, schedule: Q04DX003 (ip), vehicle: saline 109 % of control | dose: 50.0 mg/kg/injection, schedule: Q04DX003 (ip), vehicle: saline 100 % of control | [17] 100 % of control | dose: 100.0 mg/kg/injection, schedule: Q04DX003 (ip), vehicle: saline 104 % of control | [7] 96 % of control

ClCC#CCCl
inactive: dose: 6.25 mg/kg/injection, schedule: Q01DX009 (ip), vehicle: saline with Tween-80 102 % of control | dose: 12.5 mg/kg/injection, schedule: Q01DX009 (ip), vehicle: saline with Tween-80 99 % of control

C[Si](C)(C)C#CC[Si](C)(C)C
inactive: dose: 60.0 mg/kg/injection, schedule: Q01DX005 (ip), vehicle: saline with Tween-80 97 % of control | dose: 120.0 mg/kg/injection, schedule: Q01DX005 (ip), vehicle: saline with Tween-80 100 % of control | dose: 240.0 mg/kg/injection, schedule: Q01DX005 (ip), vehicle: saline with Tween-80 106 % of control

Cc1c2c(nn1C)CCOC2=O
inactive: [4] 100 % of control | [5] 101 % of control | [6] 95 % of control

CCC1SCC(=O)N1c1nncs1 (stereo not given)
inactive: dose: 25.0 mg/kg/injection, schedule: Q01DX005 (ip), vehicle: saline with Tween-80 104 % of control | [18] 101 % of control and 102 % of control | [19] 102 % of control and 97 % of control | [20] 101 % of control

CSC(/C=C1\C=Cc2ccccc2N1C)=N\S(=O)(=O)c1ccc(N)cc1
inactive: [15] 107 % of control | [16] 100 % of control | dose: 100.0 mg/kg/injection, schedule: Q04DX002 (ip), vehicle: saline with Tween-80 102 % of control

CC(C)CC(Br)C(=O)NCC(=O)O (stereo not given)
inactive: [17] 104 % of control | [7] 100 % of control | [8] 104 % of control

O=C(NC(=O)c1ccccc1F)Nc1ccc(Cl)cc1
inactive: dose: 50.0 mg/kg/injection, schedule: Q01DX009 (ip), vehicle: Klucel (hydroxypropylcellulose) (HPC) 101 % of control | dose: 100.0 mg/kg/injection, schedule: Q01DX009 (ip), vehicle: Klucel (hydroxypropylcellulose) (HPC) 100 % of control | dose: 200.0 mg/kg/injection, schedule: Q01DX009 (ip), vehicle: Klucel (hydroxypropylcellulose) (HPC) 91 % of control

CN1CNC(=O)NC1
inactive: [12] 107 % of control | [13] 100 % of control and 106 % of control | [14] 99 % of control and 101 % of control

O=C(OC(c1ccccc1)c1ccccc1)c1ccccc1
inactive: [12] 99 % of control | [13] 108 % of control | [14] 102 % of control

COC(=O)/C=C1\CC(C)C2=C(N1)SCC2=O (stereo not given)
inactive: [9] 105 % of control | [10] 105 % of control | [11] 100 % of control

O=C1OC2(CC1n1cnc3ccccc3c1=O)C(=O)Nc1ccccc12 (stereo not given)
inactive: dose: 8.75 mg/kg/injection, schedule: Q01DX005 (ip), vehicle: Klucel (hydroxypropylcellulose) (HPC) 111 % of control | dose: 17.5 mg/kg/injection, schedule: Q01DX005 (ip), vehicle: Klucel (hydroxypropylcellulose) (HPC) 90 % of control | dose: 35.0 mg/kg/injection, schedule: Q01DX005 (ip), vehicle: Klucel (hydroxypropylcellulose) (HPC) 91 % of control

CC(C)(C)c1ccc(N)c(C(O)(C(F)(F)F)C(F)(F)F)c1
inactive: dose: 30.0 mg/kg/injection, schedule: Q01DX005 (ip), vehicle: saline with Tween-80 100 % of control and 90 % of control

COC(=O)C(CSC(c1ccccc1)(c1ccccc1)c1ccccc1)NC(=O)C(CSCc1ccccc1)NC(C)=O (stereo not given) (Ac-Cys(Bn)-Cys(Trt)-OMe; configuration not given here)
inactive: dose: 4.0 mg/kg/injection, schedule: Q01DX009 (ip), vehicle: water 96 % of control | dose: 8.0 mg/kg/injection, schedule: Q01DX009 (ip), vehicle: water 104 % of control | dose: 16.0 mg/kg/injection, schedule: Q01DX009 (ip), vehicle: water 101 % of control | dose: 32.0 mg/kg/injection, schedule: Q01DX009 (ip), vehicle: water 95 % of control | dose: 64.0 mg/kg/injection, schedule: Q01DX009 (ip), vehicle: water 95 % of control | dose: 128.0 mg/kg/injection, schedule: Q01DX009 (ip), vehicle: water 90 % of control

Cc1ccc(NC(=O)C2C(=O)N(c3ccc(C)c(C)c3)C(=O)C2N=N)cc1C (stereo not given)
inactive: dose: 100.0 mg/kg/injection, schedule: Q01DX001 (ip), vehicle: saline with Tween-80 100 % of control | dose: 200.0 mg/kg/injection, schedule: Q01DX001 (ip), vehicle: saline with Tween-80 101 % of control | dose: 400.0 mg/kg/injection, schedule: Q01DX001 (ip), vehicle: saline with Tween-80 91 % of control

COc1ccc(C(=O)C2Cc3c(ccc4ccccc34)OC2=O)cc1 (stereo not given)
inactive: [1] 95 % of control | [2] 91 % of control | [3] 88 % of control

O=C(O)C1CC(Cl)C(O)C(Cl)C1 (stereo not given)
inactive: [18] 100 % of control | [19] 97 % of control | [20] 100 % of control

CC(C)(C)c1cccc(C2(C)C(=O)c3ccccc3C2=O)c1
inactive: dose: 100.0 mg/kg/injection, schedule: Q04DX002 (ip), vehicle: saline 102 % of control | dose: 200.0 mg/kg/injection, schedule: Q04DX002 (ip), vehicle: saline 101 % of control | dose: 400.0 mg/kg/injection, schedule: Q04DX002 (ip), vehicle: saline 100 % of control

CN1c2ccccc2C2CCCCC21 (stereo not given)
inactive: [18] 100 % of control | [19] 99 % of control | [20] 111 % of control
